Assay results taken from patent US8575091B1, “Amylin analogues and pharmaceutical compositions thereof” (Novo Nordisk A/S, priority 2012, dated 2013).
Numbered stars: 1 amine (or outer) side, 2 acyl side, 3 side chain; on linkers, the order of the positions; unused ones are H or OH. Bridge positions count the residues as written; N and C are the ends. Peptide text beside a SMILES is read from it. * marks the point of attachment. C20 diacid = O=C(O)CCCCCCCCCCCCCCCCCCC(=O)*; γGlu = O=C(O)[C@H](CCC(=O)[*:2])N[*:1]

Legend:
[1] = target: T1, human calcitonin receptor (Homo sapiens, UniProt P30988); assay: Assay (II)a functional assay, human calcitonin receptor (CRE luciferase, BHK cells);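 also: luminescence from a CRE-driven luciferase reporter, read by single photon counting after cells were exposed to test samples for 3 h at 37 °C under 5% CO2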; type: cell-based; conditions: read-out: hCTR funct. EC50
T1 construct: expressed in transfected cells
T1 sequence (P30988 25-474): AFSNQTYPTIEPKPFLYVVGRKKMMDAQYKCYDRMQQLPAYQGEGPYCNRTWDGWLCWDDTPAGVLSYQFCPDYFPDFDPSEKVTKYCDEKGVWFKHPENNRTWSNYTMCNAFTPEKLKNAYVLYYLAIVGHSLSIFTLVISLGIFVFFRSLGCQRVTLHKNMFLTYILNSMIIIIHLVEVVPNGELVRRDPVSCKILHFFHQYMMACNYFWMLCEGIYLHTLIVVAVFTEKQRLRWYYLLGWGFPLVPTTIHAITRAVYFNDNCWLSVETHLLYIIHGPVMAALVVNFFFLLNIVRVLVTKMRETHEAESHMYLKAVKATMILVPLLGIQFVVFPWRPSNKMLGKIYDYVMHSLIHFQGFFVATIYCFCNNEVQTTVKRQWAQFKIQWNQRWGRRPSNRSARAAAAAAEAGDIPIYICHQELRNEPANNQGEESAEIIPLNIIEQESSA
Description: Assay (II)—Functional Assays
Consequently, transcription is activated by promoters containing multiple copies of the cAMP response element (CRE).
The cell line was further transfected with RAMP-3, using standard methods.
After incubation overnight at 37° C. and 5% CO2, the growth medium was replaced by 50 μl/well assay medium (DMEM (without phenol red), Glutamax™, 10% FBS, and 10 mM Hepes, pH 7.4). Further, 50 μl/well of standard or sample in assay buffer were added. After 3 hours incubation at 37° C. and 5% CO2, the assay medium with standard or sample were removed and replaced by 100 μl/well PBS. Further, 100 μl/well LucLite™ was added. The plates were sealed and incubated at room temperature for 30 minutes. Finally, luminescence was measured on a TopCounter (Packard) in SPC (single photon counting) mode.

human amylin receptor = target: T2, human amylin receptor (Homo sapiens, UniProt O60896+P30988); assay: Assay (V) binding to the human amylin receptor (SPA, 125I-rat amylin); conditions: human amylin receptor membranes, SPA; read-out: hAmylin-R bind IC50
T2 construct: expressed in transfected cells
T2 sequence (P30988 25-474): T1 sequence (P30988 25-474)
T2 sequence (O60896 24-148 partner): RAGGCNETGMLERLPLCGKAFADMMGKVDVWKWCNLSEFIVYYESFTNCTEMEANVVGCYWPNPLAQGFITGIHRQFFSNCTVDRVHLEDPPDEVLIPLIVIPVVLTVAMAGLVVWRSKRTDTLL
Procedure, shortened: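 SPA competition binding on membranes from Amylin 3(a)/CRE-luc cells, 35 ng/μL membranes with 0.05 mg/well beads. Buffer 50 mM Hepes pH 7.4, 1 mM CaCl2, 5 mM MgCl2, 0.1% OA, 0.02% Tween20. IC50 from one-site competition fit as affinity measure.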

[2] = target: T3, human amylin receptor (amylin 3(a) receptor: human calcitonin receptor + RAMP-3) (Homo sapiens, UniProt O60896+P30988); assay: Assay (II)a functional assay, human amylin receptor (CRE luciferase, BHK cells); type: cell-based; conditions: for EC50: functional assay, human amylin receptor, read-out: hAmylin-R funct. EC50
T3 construct: expressed in transfected cells
T3 sequence (P30988 25-474): T1 sequence (P30988 25-474)
T3 sequence (O60896 24-148 partner): T2 sequence (O60896 24-148 partner)

[3] = target: T1, human calcitonin receptor; assay: Assay (VII) binding to the human calcitonin receptor (SPA, 125I-Calcitonin); conditions: read-out: hCTR bind IC50;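 also: cell membranes coupled to SPA beads, competitive displacement read by scintillation counting, IC50 derived from a one-site competition fit as a measure of receptor affinity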
[4] = Table 6, human functional selectivity (hCTR EC50 / hAmylin-R EC50)

Compound | EC50 [1] [nM] | IC50 (human amylin receptor) [nM] | EC50 [2] [nM] | IC50 [3] [nM] | Ratio hCT/hAmylin funct. [2, 4] | Ratio hCT/hAmylin funct. ([2]; Table 6a, human functional selectivity (hCTR EC50 / hAmylin-R EC50), at least 5) | Ratio hCT/hAmylin funct. ([2]; Table 6j, hCTR funct. EC50 / hAmylin-R funct. EC50) | Ratio hCT/hAmylin funct. ([2]; Table 6k, hCTR funct. EC50 / hAmylin-R funct. EC50)
CC[C@H](C)[C@H](NC(=O)[C@H](C)NC(=O)CNC(=O)[C@H](Cc1ccccc1)NC(=O)[C@H](CC(N)=O)NC(=O)[C@@H]1CCCN1C(=O)[C@H](CO)NC(=O)[C@H](CO)NC(=O)[C@H](Cc1c[nH]cn1)NC(=O)[C@H](CCCNC(=N)N)NC(=O)[C@H](CC(C)C)NC(=O)[C@H](Cc1ccccc1)NC(=O)[C@H](CC(N)=O)NC(=O)[C@H](C)NC(=O)[C@H](CC(C)C)NC(=O)[C@H](CCCNC(=N)N)NC(=O)[C@H](CCC(N)=O)NC(=O)[C@@H](NC(=O)[C@H](C)NC(=O)[C@@H]1CSSC[C@H](NC(=O)[C@@H](N)CCCCNC(=O)COCCOCCNC(=O)COCCOCCNC(=O)CC[C@H](NC(=O)CCCCCCCCCCCCCCCCCCC(=O)O)C(=O)O)C(=O)N[C@@H](CC(N)=O)C(=O)N[C@@H]([C@@H](C)O)C(=O)N[C@@H](C)C(=O)N[C@@H]([C@@H](C)O)C(=O)N1)[C@@H](C)O)C(=O)N1CCC[C@H]1C(=O)N[C@@H](CO)C(=O)N[C@@H](CO)C(=O)N[C@H](C(=O)N[C@@H](CC(N)=O)C(=O)N[C@H](C(=O)NCC(=O)N1CCC[C@H]1C(=O)N[C@@H](CC(N)=O)C(=O)N[C@H](C(=O)N[C@@H](Cc1ccc(O)cc1)C(N)=O)[C@@H](C)O)C(C)C)[C@@H](C)O [Example 98] | 1.63 | 0.091 | 0.084 | 6.74 |  |  |  | 
CC[C@H](C)[C@H](NC(=O)[C@H](C)NC(=O)CNC(=O)[C@H](Cc1ccccc1)NC(=O)[C@H](CC(N)=O)NC(=O)[C@@H]1CCCN1C(=O)[C@H](CO)NC(=O)[C@H](CO)NC(=O)[C@H](Cc1c[nH]cn1)NC(=O)[C@H](CCCNC(=N)N)NC(=O)[C@H](CC(C)C)NC(=O)[C@H](Cc1ccccc1)NC(=O)[C@H](Cc1c[nH]cn1)NC(=O)[C@H](C)NC(=O)[C@H](CC(C)C)NC(=O)[C@H](CCCNC(=N)N)NC(=O)[C@H](CCC(N)=O)NC(=O)[C@@H](NC(=O)[C@H](C)NC(=O)[C@@H]1CSSC[C@H](NC(=O)[C@H](CCCNC(=N)N)NC(=O)CNC(=O)CC[C@H](NC(=O)CCCCCCCCCCCCCCCCCCC(=O)O)C(=O)O)C(=O)N[C@@H](CC(N)=O)C(=O)N[C@@H]([C@@H](C)O)C(=O)N[C@@H](C)C(=O)N[C@@H]([C@@H](C)O)C(=O)N1)[C@@H](C)O)C(=O)N1CCC[C@H]1C(=O)N[C@@H](CO)C(=O)N[C@@H](CO)C(=O)N[C@H](C(=O)N[C@@H](CC(N)=O)C(=O)N[C@H](C(=O)NCC(=O)N[C@@H](CO)C(=O)N[C@@H](CC(N)=O)C(=O)N[C@H](C(=O)N[C@@H](Cc1ccc(O)cc1)C(N)=O)[C@@H](C)O)C(C)C)[C@@H](C)O [Example 99] ({C20 diacid-γGlu}-GRCNTATCATQRLAHFLRHSSPNFGAIPSSTNVGSNTY-NH2; disulfide 3-8) | 0.818 | 0.348 | 0.082 | 35 | 10.0 | 10.0 | 10.0 | 10.0
CC[C@H](C)[C@H](NC(=O)[C@H](C)NC(=O)CNC(=O)[C@H](Cc1ccccc1)NC(=O)[C@H](CC(N)=O)NC(=O)[C@@H]1CCCN1C(=O)[C@H](CO)NC(=O)[C@H](CO)NC(=O)[C@H](Cc1c[nH]cn1)NC(=O)[C@H](CCCNC(=N)N)NC(=O)[C@H](CC(C)C)NC(=O)[C@H](Cc1ccccc1)NC(=O)[C@H](Cc1c[nH]cn1)NC(=O)[C@H](C)NC(=O)[C@H](CC(C)C)NC(=O)[C@H](CCCNC(=N)N)NC(=O)[C@H](CCC(N)=O)NC(=O)[C@@H](NC(=O)[C@H](C)NC(=O)[C@@H]1CSSC[C@H](NC(=O)[C@H](CCCNC(=N)N)NC(=O)CNC(=O)CC[C@H](NC(=O)CCCCCCCCCCCCCCCCCCC(=O)O)C(=O)O)C(=O)N[C@@H](CC(N)=O)C(=O)N[C@@H]([C@@H](C)O)C(=O)N[C@@H](C)C(=O)N[C@@H]([C@@H](C)O)C(=O)N1)[C@@H](C)O)C(=O)N1CCC[C@H]1C(=O)N[C@@H](CO)C(=O)N[C@@H](CO)C(=O)N[C@H](C(=O)N[C@@H](CC(N)=O)C(=O)N[C@H](C(=O)NCC(=O)N1CCC[C@H]1C(=O)N[C@@H](CC(N)=O)C(=O)N[C@H](C(=O)N[C@@H](Cc1ccc(O)cc1)C(N)=O)[C@@H](C)O)C(C)C)[C@@H](C)O [Example 102] ({C20 diacid-γGlu}-GRCNTATCATQRLAHFLRHSSPNFGAIPSSTNVGPNTY-NH2; disulfide 3-8) | 0.179 | 0.217 | 0.062 | 7.86 | 2.9 |  |  | 
